The structures appear in SMILES notation.

In test [1] the test system is microfilariae of Dirofilaria immitis. The experiment in a line: Dirofilaria immitis, Microfilaria (DiMF) In vitro Assay. The test is classed as cell-based. The note with it: 72 h, read-out: DiMF Minimum Effective Dose (MED), approximately 72 hours incubation, microfilariae assessed for survival or paralysis.
The subject of test [2] is third stage larvae of Haemonchus contortus. Description: Haemonchus contortus L3 (HcL3) Assay. It is filed as cell-based. The note with it: 96 h, read-out: HcL3 Minimum Effective Dose (MED).

Regarding `CC(C)C[C@H]1C(=O)O[C@H](Cc2ccc(Cn3ccnc3C3CC3)cc2)C(=O)N(C)[C@@H](CC(C)C)C(=O)O[C@H](C)C(=O)N(C)[C@@H](CC(C)C)C(=O)O[C@H](Cc2ccc(Cn3ccnc3C3CC3)cc2)C(=O)N(C)[C@@H](CC(C)C)C(=O)O[C@H](C)C(=O)N1C` [Example 6-7, (3S,6R,9S,12R,15S,18R,21S,24R)-6,18-bis[[4-[(2-cyclopropylimidazol-1-yl)methyl]phenyl]methyl]-3,9,15,21-tetraisobutyl-4,10,12,16,22,24-hexamethyl-1,7,13,19-tetraoxa-4,10,16,22-tetrazacyclotetracosane-2,5,8,11,14,17,20,23-octaone], the minimal effective concentration in test [1] was in the range of 0.01 to 0.1 µM; in test [2], 1 to 10 µM.
The corresponding values for `CC(C)C[C@H]1C(=O)O[C@H](Cc2ccc(Cn3nccc3C(C)(C)C)cc2)C(=O)N(C)[C@@H](CC(C)C)C(=O)O[C@H](C)C(=O)N(C)[C@@H](CC(C)C)C(=O)O[C@H](Cc2ccccc2)C(=O)N(C)[C@@H](CC(C)C)C(=O)O[C@H](C)C(=O)N1C` [Example 2-68, (3S,6R,9S,12R,15S,18R,21S,24R)-6-benzyl-18-(4-((5-(tert-butyl)-1H-pyrazol-1-yl)methyl)benzyl)-3,9,15,21-tetraisobutyl-4,10,12,16,22,24-hexamethyl-1,7,13,19-tetraoxa-4,10,16,22-tetraazacyclotetracosan-2,5,8,11,14,17,20,23-octaone] are 0.01 to 0.1 µM and 1 to 10 µM.
Taken in the same sequence, the figures for `CC(C)C[C@H]1C(=O)O[C@H](Cc2ccc(Cn3ccnc3C(C)C)cc2)C(=O)N(C)[C@@H](CC(C)C)C(=O)O[C@H](C)C(=O)N(C)[C@@H](CC(C)C)C(=O)O[C@H](Cc2ccccc2)C(=O)N(C)[C@@H](CC(C)C)C(=O)O[C@H](C)C(=O)N1C` [Example 8-8, (3S,6R,9S,12R,15S,18R,21S,24R)-6-benzyl-3,9,15,21-tetraisobutyl-18-(4-((2-isopropyl-1H-imidazol-1-yl)methyl)benzyl)-4,10,12,16,22,24-hexamethyl-1,7,13,19-tetraoxa-4,10,16,22-tetraazacyclotetracosan-2,5,8,11,14,17,20,23-octaone] were 0.001 to 0.01 µM and 1 to 10 µM.
Regarding `CC(C)C[C@H]1C(=O)O[C@H](Cc2ccc(Cn3nc(C4CC4)cc3C3CC3)cc2)C(=O)N(C)[C@@H](CC(C)C)C(=O)O[C@H](C)C(=O)N(C)[C@@H](CC(C)C)C(=O)O[C@H](Cc2ccc(Cn3nc(CO)cc3C3CC3)cc2)C(=O)N(C)[C@@H](CC(C)C)C(=O)O[C@H](C)C(=O)N1C` [Example 1a-14, (3S,6R,9S,12R,15S,18R,21S,24R)-6-(4-((5-cyclopropyl-3-(hydroxymethyl)-1H-pyrazol-1-yl)methyl)benzyl)-18-(4-((3,5-dicyclopropyl-1H-pyrazol-1-yl)methyl)benzyl)-3,9,15,21-tetraisobutyl-4,10,12,16,22,24-hexamethyl-1,7,13,19-tetraoxa-4,10,16,22-tetraazacyclotetracosan-2,5,8,11,14,17,20,23-octaone], the minimal effective concentration in test [1] fell in the range of 0.01 to 0.1 µM; in test [2] it was 1 to 10 µM.
For the compound `CCc1nc(C)nn1Cc1ccc(C[C@H]2OC(=O)[C@H](CC(C)C)N(C)C(=O)[C@@H](C)OC(=O)[C@H](CC(C)C)N(C)C(=O)[C@@H](Cc3ccc(Cn4nc(C)nc4CC)cc3)OC(=O)[C@H](CC(C)C)N(C)C(=O)[C@@H](C)OC(=O)[C@H](CC(C)C)N(C)C2=O)cc1` [Example 9-59, (3S,6R,9S,12R,15S,18R,21S,24R)-6,18-bis(4-((5-ethyl-3-methyl-1H-1,2,4-triazol-1-yl)methyl)benzyl)-3,9,15,21-tetraisobutyl-4,10,12,16,22,24-hexamethyl-1,7,13,19-tetraoxa-4,10,16,22-tetraazacyclotetracosan-2,5,8,11,14,17,20,23-octaone], the minimal effective concentration lay in the range of 0.01 to 0.1 µM in test [1] and 1 to 10 µM in test [2].
Taken in the same sequence, the figures for `CC(C)C[C@H]1C(=O)O[C@H](Cc2ccc(Cn3cc(-c4ccncn4)cn3)cc2)C(=O)N(C)[C@@H](CC(C)C)C(=O)O[C@H](C)C(=O)N(C)[C@@H](CC(C)C)C(=O)O[C@H](Cc2ccccc2)C(=O)N(C)[C@@H](CC(C)C)C(=O)O[C@H](C)C(=O)N1C` [Example 2-45, (3S,6R,9S,12R,15S,18R,21S,24R)-6-benzyl-3,9,15,21-tetraisobutyl-4,10,12,16,22,24-hexamethyl-18-(4-((4-(pyrimidin-4-yl)-1H-pyrazol-1-yl)methyl)benzyl)-1,7,13,19-tetraoxa-4,10,16,22-tetraazacyclotetracosan-2,5,8,11,14,17,20,23-octaone] were 0.001 to 0.01 µM and 1 to 10 µM.
Take `COC(C)(C)Cc1ccnn1Cc1ccc(C[C@H]2OC(=O)[C@H](CC(C)C)N(C)C(=O)[C@@H](C)OC(=O)[C@H](CC(C)C)N(C)C(=O)[C@@H](Cc3ccc(Cn4nccc4CC(C)(C)OC)cc3)OC(=O)[C@H](CC(C)C)N(C)C(=O)[C@@H](C)OC(=O)[C@H](CC(C)C)N(C)C2=O)cc1` [Example 1b-214, (3S,6R,9S,12R,15S,18R,21S,24R)-3,9,15,21-tetraisobutyl-6,18-bis(4-((5-(2-methoxy-2-methylpropyl)-1H-pyrazol-1-yl)methyl)benzyl)-4,10,12,16,22,24-hexamethyl-1,7,13,19-tetraoxa-4,10,16,22-tetraazacyclotetracosan-2,5,8,11,14,17,20,23-octaone]: the figures for the minimal effective concentration in test [1] and in test [2] were 0.01 to 0.1 µM and 1 to 10 µM, respectively.
Taken in the same sequence, the figures for `CCOCc1nccn1Cc1ccc(C[C@H]2OC(=O)[C@H](CC(C)C)N(C)C(=O)[C@@H](C)OC(=O)[C@H](CC(C)C)N(C)C(=O)[C@@H](Cc3ccc(Cn4ccnc4COCC)cc3)OC(=O)[C@H](CC(C)C)N(C)C(=O)[C@@H](C)OC(=O)[C@H](CC(C)C)N(C)C2=O)cc1` [Example 6-20, (3S,6R,9S,12R,15S,18R,21S,24R)-6,18-bis(4-((2-(ethoxymethyl)-1H-imidazol-1-yl)methyl)benzyl)-3,9,15,21-tetraisobutyl-4,10,12,16,22,24-hexamethyl-1,7,13,19-tetraoxa-4,10,16,22-tetraazacyclotetracosan-2,5,8,11,14,17,20,23-octaone] were 0.001 to 0.01 µM and 1 to 10 µM.
With `CCc1nccn1Cc1ccc(C[C@H]2OC(=O)[C@H](CC(C)C)N(C)C(=O)[C@@H](C)OC(=O)[C@H](CC(C)C)N(C)C(=O)[C@@H](Cc3ccccc3)OC(=O)[C@H](CC(C)C)N(C)C(=O)[C@@H](C)OC(=O)[C@H](CC(C)C)N(C)C2=O)cc1` [Example 8-4, (3S,6R,9S,12R,15S,18R,21S,24R)-6-benzyl-18-[[4-[(2-ethylimidazol-1-yl)methyl]phenyl]methyl]-3,9,15,21-tetraisobutyl-4,10,12,16,22,24-hexamethyl-1,7,13,19-tetraoxa-4,10,16,22-tetrazacyclotetracosane-2,5,8,11,14,17,20,23-octaone], the minimal effective concentration in test [1] lay in the range of 0.01 to 0.1 µM; in test [2], 1 to 10 µM.
For `CC(C)C[C@H]1C(=O)O[C@H](Cc2ccc(Cn3nc(CO)cc3C3CC3)cc2)C(=O)N(C)[C@@H](CC(C)C)C(=O)O[C@H](C)C(=O)N(C)[C@@H](CC(C)C)C(=O)O[C@H](Cc2ccc(Cn3nc(C#N)cc3C#N)cc2)C(=O)N(C)[C@@H](CC(C)C)C(=O)O[C@H](C)C(=O)N1C` [Example 1a-10, 1-(4-(((2R,5S,8R,11S,14R,17S,20R,23S)-14-(4-((5-cyclopropyl-3-(hydroxymethyl)-1H-pyrazol-1-yl)methyl)benzyl)-5,11,17,23-tetraisobutyl-4,8,10,16,20,22-hexamethyl-3,6,9,12,15,18,21,24-octaoxo-1,7,13,19-tetraoxa-4,10,16,22-tetraazacyclotetracosan-2-yl)methyl)benzyl)-1H-pyrazole-3,5-dicarbonitrile], the minimal effective concentration lay within 0.001 to 0.01 µM in test [1] and 1 to 10 µM in test [2].
The corresponding values for `CC(C)C[C@H]1C(=O)O[C@H](Cc2ccc(Cn3nccc3C3(C)CCOCC3)cc2)C(=O)N(C)[C@@H](CC(C)C)C(=O)O[C@H](C)C(=O)N(C)[C@@H](CC(C)C)C(=O)O[C@H](Cc2ccc(Cn3nccc3C3(C)CCOCC3)cc2)C(=O)N(C)[C@@H](CC(C)C)C(=O)O[C@H](C)C(=O)N1C` [Example 1b-213, (3S,6R,9S,12R,15S,18R,21S,24R)-3,9,15,21-tetraisobutyl-4,6,10,16,18,22-hexamethyl-12,24-bis(4-((5-(4-methyltetrahydro-2H-pyran-4-yl)-1H-pyrazol-1-yl)methyl)benzyl)-1,7,13,19-tetraoxa-4,10,16,22-tetraazacyclotetracosan-2,5,8,11,14,17,20,23-octaone] are 0.001 to 0.01 µM and 1 to 10 µM.
Consider `Cc1ccn(Cc2ccc(C[C@H]3OC(=O)[C@H](CC(C)C)N(C)C(=O)[C@@H](C)OC(=O)[C@H](CC(C)C)N(C)C(=O)[C@@H](Cc4ccc(Cn5ccc(C)n5)cc4)OC(=O)[C@H](CC(C)C)N(C)C(=O)[C@@H](C)OC(=O)[C@H](CC(C)C)N(C)C3=O)cc2)n1` [Example 1b-94, (3S,6R,9S,12R,15S,18R,21S,24R)-3,9,15,21-tetraisobutyl-4,6,10,16,18,22-hexamethyl-12,24-bis(4-((3-methyl-1H-pyrazol-1-yl)methyl)benzyl)-1,7,13,19-tetraoxa-4,10,16,22-tetraazacyclotetracosan-2,5,8,11,14,17,20,23-octaone], for which the minimal effective concentration in test [1] is 0.001 to 0.01 µM; in test [2], at most 1 µM.
Taken in the same sequence, the figures for `CC(C)C[C@H]1C(=O)O[C@H](Cc2ccc(Cn3ccnc3C(C)(C)C)cc2)C(=O)N(C)[C@@H](CC(C)C)C(=O)O[C@H](C)C(=O)N(C)[C@@H](CC(C)C)C(=O)O[C@H](Cc2ccccc2)C(=O)N(C)[C@@H](CC(C)C)C(=O)O[C@H](C)C(=O)N1C` [Example 8-6, (3S,6R,9S,12R,15S,18R,21S,24R)-6-benzyl-18-[[4-[(2-tert-butylimidazol-1-yl)methyl]phenyl]methyl]-3,9,15,21-tetraisobutyl-4,10,12,16,22,24-hexamethyl-1,7,13,19-tetraoxa-4,10,16,22-tetrazacyclotetracosane-2,5,8,11,14,17,20,23-octaone] were 0.01 to 0.1 µM and 1 to 10 µM.

For the origin of these results see patent publication US11331369B2, “Endoparasitic depsipeptides” (Zoetis Services LLC, priority 2017, dated 2022).
